Laboratory results taken from article PMC11869560, “Anticancer and cancer preventive activities of shogaol and curcumin from Zingiberaceae family plants in KG-1a leukemic stem cells” (BMC Complementary Medicine and Therapies, 2025).
≈ marks a conversion by molar mass, not a printed value. Read-outs that look alike come from different tables or passages of the source.

Key:
Format in all cases: cell-based, human
[1] = system: cleaved caspase-3 and PARP in KG-1a cells; assay: Cleaved caspase-3 and cleaved PARP in KG-1a cells by Western blotting; settings: IC50 concentrations (curcumin 10 µg/mL, shogaol 3 µg/mL, nocodazole 10 ng/mL), 0–12 h
Description: (§1) KG-1a cells (1.5 × 10^5 cells/mL) were treated with compounds or extracts at different incubation times. Then, the cells were harvested and the whole proteins were extracted using a RIPA buffer (25 mM Tris-base, pH 7.6, 0.1% SDS, 1% Triton X-100, 150 mM NaCl, and 1 mM EDTA). The protein concentration was measured using the Folin-Lowry or Bradford assay. The whole protein lysates (30 µg/lane) were then separated through 7.5% SDS-PAGE under reducing conditions and then transferred to PVDF membranes. The membranes were blocked in 5% skim milk in PBS, pH 7.4 at RT for 2 h, then, target proteins were probed with specific primary antibodies (anti-WT1, anti-CD34, anti-GAPDH, anti-cleaved caspase-3, anti-cleaved PARP, anti-phospho-Akt, anti-phospho-c-Jun, anti-phospho-SAPK/JNK, and anti-YAP/TAZ) indicated in Table S10 which diluted at a ratio of 1:1,000 in PBS, pH 7.4 at RT for 2 h. After incubation, the membranes were rinsed 6 times with 0.1% Tween-20 (Sigma-Aldrich, MA, USA) in PBS, pH 7.4 (PBS-T), each time for 5 min. The reaction was followed by HRP-conjugated secondary antibody at 1:20,000 dilution in PBS, pH 7.4 at RT for 2 h, then, the membranes were rinsed 6 times for 5 min each with PBS-T. The proteins were shown using Immobilon Forte Western HRP substrate (Millipore, MA, USA). Finally, the protein band signal was quantified by using a scan densitometer (Bio-Rad Laboratories, CA, USA).

PBMCs = assay: MTT cytotoxicity assay in PBMCs; settings: Homo sapiens, PBMC; for IC20: incubation for 48 h, read-out: IC20 PBMCs (inhibitory concentration at 20% growth)
Description: PBMCs were isolated from blood samples using the Ficoll-Hypaque technique. Initially, 10–20 mL of blood was collected in a heparin tube at a ratio of 1:500 from a minimum of three healthy volunteers. Subsequently, the blood samples were diluted with Phosphate buffer saline (PBS), pH 7.4, at a ratio of 1:1 to reduce viscosity. Histopaque-1077 (Sigma-Aldrich, MA, USA) was then underlaid the diluted sample and centrifuged at 400×g for 30 min. The resulting PBMCs were collected, washed with PBS, pH 7.4, and prepared for further experiments.
MTT (3-(4,5-dimethylthiazol-2-yl)-2,5-diphenyltetrazolium bromide) assay was used to investigate the cytotoxicity of the test samples. KG-1a (1.5 × 10^4 cells/well), K562 (1.0 × 10^4 cells/well), PBMCs (1.0 × 10^5 cells/well), A549 (5.0 × 10^3 cells/well), MCF-7 (5.0 × 10^3 cells/well), and HeLa (5.0 × 10^3 cells/well) were seeded into a 96-well plate and incubated overnight at 37 °C with 5% CO2. […] After that, 5 mg/mL of MTT dye solution (Sigma-Aldrich, MA, USA) was added and incubated for 4 h. The produced formazan crystals were dissolved in 200 µL of DMSO (Sigma-Aldrich, MA, USA); then, the optical density (OD) was measured using an ELISA plate reader (Metertech, Taipei, Taiwan) at 578 nm with a reference wavelength of 630 nm. The percentage of surviving cells was calculated from the absorbance values of the test and control wells using the following Equation. 1 [drawing 1]
where ODsample is a mean absorbance in test well and ODvehicle control is a mean absorbance in VC well. The average percentage of surviving cells at each concentration obtained from triplicate experiments was plotted as a dose-response curve. Inhibitory concentration values at 50% growth (IC50 value) were defined as the lowest concentration of the test sample that inhibited cell growth by 50% compared to the untreated control.
To calculate IC50 values, a dose-response curve was fitted using non-linear regression analysis, as described in the GraphPad Prism guidelines (https://www.graphpad.com/support/faq/how-to-determine-an-icsub50sub/). The IC50 value was obtained by determining the point at which the curve intersected 50% growth inhibition. Non-linear regression graphs of the dose-response curve for each compound are provided in the supplementary data file (Figs. S1–S8).

[2] = system: CD34 protein expression in KG-1a cells; assay: CD34 protein expression in KG-1a cells by Western blotting; settings: IC20 concentrations, 48 h, normalized to GAPDH
Description: as §1

KG-1a cells = assay: Trypan blue exclusion test, cell numbers of KG-1a cells; settings: IC20 concentrations, 48 h
Description: (§2) This test was used to confirm the cytotoxicity of the test samples. The cancer cells after exposure to crude ethanolic extracts and active compounds for 48 h were harvested and washed with ice-cold PBS, pH 7.4 for 3 times. Then, the cells were resuspended with PBS, pH 7.4. The cell suspensions were diluted with PBS, pH 7.4 at the appropriate dilution before being mixed with 0.2% trypan blue solution at 1:2 dilution for cell count on a hemocytometer. From this test, the viable cells and the dead cells could also be obviously detected.
as §2, with “crude ethanolic extracts and active compounds. KG-1a” for “the test samples. The cancer”

[3] = Table S8, PBMCs, first replicate, read-out: IC50 value R1
[4] = Table S8, PBMCs, second replicate, read-out: IC50 value R2
[5] = Table S8, PBMCs, third replicate, read-out: IC50 value R3
[6] = active compounds and drugs, MTT, 48 h, read-out: IC50 PBMCs

| SMILES | time to activation of cleaved caspase-3 and PARP [1] [h] | IC50 (PBMCs; [3]) [mg/L] | IC50 (PBMCs; [4]) [mg/L] | IC50 (PBMCs; [5]) [mg/L] | IC50 (PBMCs; [6]) [mg/L] | IC20 (PBMCs) [mg/L] | decrease of CD34 protein level compared to VC [2] [%] | decrease of total cell number compared to VC (KG-1a cells) [%] | normalized viable cell counts (KG-1a cells) |
| --- | --- | --- | --- | --- | --- | --- | --- | --- | --- |
| CCCCC/C=C/C(=O)CCc1ccc(O)c(OC)c1 [Shogaol, shogaol] | 3 | 8.3 (≈ 30 µM) | 9.9 (≈ 35.8 µM) | 9.35 (≈ 33.8 µM) | 9.18 ± 0.82 (≈ 33.2 µM) | 6.06 ± 1.11 (≈ 21.9 µM) | 35.93 ± 3.70 | 35.32 ± 6.10 | 976.13 ± 13.69 × 10^3 cells per 1 million total cells |
| COc1cc(/C=C/C(=O)CC(=O)/C=C/c2ccc(O)c(OC)c2)ccc1O [Curcumin, curcumin] | 6 | 13.8 (≈ 37.4 µM) | 14.6 (≈ 39.6 µM) | 13 (≈ 35.2 µM) | 13.8 ± 0.82 (≈ 37.4 µM) | 3.72 ± 0.58 (≈ 10.1 µM) | 29.29 ± 2.43 | 40.75 ± 12.78 | 954.40 ± 3.19 × 10^3 cells per 1 million total cells |
